Assay results as given in PMC9579956 (RSC Medicinal Chemistry, 2022).
Values joined by “and” are separate entries in the source; they are usually repeats but may differ in a detail not shown here. Identical values can stand only once. Like-named read-outs stand apart in the source and are kept apart here.

Tests used:
[1] = biological target: T1, Mycobacterium thermoresistible (Mtr) LpqY (Mycolicibacterium thermoresistibile, UniProt G7CES0); assay type: binding; details: for Hit validation Binding score: MST re-evaluation of hits against LpqY; for Validation binding score (MST): quadruplicate, new batch of LpqY
T1 sequence (G7CES0 29-471): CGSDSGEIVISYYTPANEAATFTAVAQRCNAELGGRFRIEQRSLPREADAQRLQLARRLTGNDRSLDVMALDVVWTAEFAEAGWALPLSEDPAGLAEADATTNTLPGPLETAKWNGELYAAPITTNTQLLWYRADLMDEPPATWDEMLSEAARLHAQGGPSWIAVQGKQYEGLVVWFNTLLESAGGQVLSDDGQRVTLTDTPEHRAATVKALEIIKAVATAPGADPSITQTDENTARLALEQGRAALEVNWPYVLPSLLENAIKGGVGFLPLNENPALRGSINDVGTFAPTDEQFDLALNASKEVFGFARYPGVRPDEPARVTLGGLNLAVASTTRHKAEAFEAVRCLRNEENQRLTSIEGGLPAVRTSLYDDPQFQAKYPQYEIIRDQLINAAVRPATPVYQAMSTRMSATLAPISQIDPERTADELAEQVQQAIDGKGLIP

[2] = biological target: T1, Mycobacterium thermoresistible (Mtr) LpqY; assay type: binding; details: for Screen signal/noise ratio (MST S/N): compound 100 μM, LpqY 500 nM, 10% DMSO, duplicate; for Pathogen Box screen signal/noise ratio: single dose MST screen against LpqY
[3] = Solubility in aqueous buffer (observation in MST affinity assay); assay type: physicochemical
Description: The top five hits that were commercially available were selected for further characterisation and the binding affinities determined with LpqY (Fig. 4, Table S2 ^†).

[4] = biological target: T1, Mycobacterium thermoresistible (Mtr) LpqY; test: Affinity studies with microscale thermophoresis (MST); assay type: binding; details: for Binding to LpqY (qualitative): Kd could not be determined

CC1(C)OB(O)c2ccc(C3=NOC(c4cc(Cl)c(F)c(Cl)c4)(C(F)(F)F)C3)cc21 (stereo not drawn) [MMV687775, 5-(3,5-dichloro-4-fluorophenyl)-3-(1-hydroxy-3,3-dimethyl-2,1-benzoxaborol-5-yl)-5-(trifluoromethyl)-4H-1,2-oxazole]
Hit validation Binding score [1]: 3.9 | Validation binding score (MST) [1]: 3.9 | Screen signal/noise ratio (MST S/N) [2]: 6.6 | Pathogen Box screen signal/noise ratio [2]: 6.6

O=C(NCCc1c[nH]c2ccccc12)c1cc2ccccc2oc1=O [MMV676539, N-[2-(1H-indol-3-yl)ethyl]-2-oxochromene-3-carboxamide]
Hit validation Binding score [1]: 6.4 | Validation binding score (MST) [1]: 6.4 and > 5 | Screen signal/noise ratio (MST S/N) [2]: 6.2 | Pathogen Box screen signal/noise ratio [2]: 6.2

Nc1cccnc1Nc1ccc(Cl)cc1 [MMV676524, 2-N-(4-chlorophenyl)pyridine-2,3-diamine]
Hit validation Binding score [1]: 12.2 | Solubility in aqueous buffer [3]: poor solubility | Screen signal/noise ratio (MST S/N) [2]: 6.4 | Pathogen Box screen signal/noise ratio [2]: 6.4 | Binding to LpqY (qualitative) ([4]; MST): Concentration dependent binding

OC[C@H]1O[C@H](O[C@H]2O[C@H](CO)[C@@H](O)[C@H](O)[C@H]2O)[C@H](O)[C@@H](O)[C@@H]1O [Trehalose, α-D-glucopyranosyl-α-D-glucopyranoside, reference compound]
Hit validation Binding score [1]: 8.3 | Validation binding score (MST) [1]: 8.3

CS(=O)(=O)c1ccccc1C(=O)N(Cc1ccccc1)c1ccccc1 [MMV688798, N-benzyl-2-methylsulfonyl-N-phenylbenzamide]
Hit validation Binding score [1]: 1.3 | Validation binding score (MST) [1]: 1.3 | Screen signal/noise ratio (MST S/N) [2]: 5.2 | Pathogen Box screen signal/noise ratio [2]: 5.2

CCOC(=O)NC(=O)c1ccsc1NC(=O)c1nc2ccccc2s1 [MMV090930, TCA1, reference compound]
Hit validation Binding score [1]: 91.5 | Validation binding score (MST) [1]: > 5 | Screen signal/noise ratio (MST S/N) [2]: 29.5 | Pathogen Box screen signal/noise ratio [2]: 29.5 | Kd [4]: 14.2 ± 0.8 µM | fold increase of affinity (Kd) compared to trehalose ([4]; MST): ~2.5 fold

COc1ccccc1C(C)NCC(=O)Nc1cc(C(F)(F)F)ccc1Cl (stereo not drawn) [MMV020321, N-[2-chloro-5-(trifluoromethyl)phenyl]-2-[1-(2-methoxyphenyl)ethylamino]acetamide]
Hit validation Binding score [1]: 1.9 | Validation binding score (MST) [1]: 1.9 | Screen signal/noise ratio (MST S/N) [2]: 5.5 | Pathogen Box screen signal/noise ratio [2]: 5.5

COc1cc(C2=NCCN2)cc2cc(-c3ccc(C4=NCCN4)cc3)oc12 [MMV688362, 2-[4-[5-(4,5-dihydro-1H-imidazol-2-yl)-7-methoxy-1-benzofuran-2-yl]phenyl]-4,5-dihydro-1H-imidazole]
Hit validation Binding score [1]: 14.8 | Screen signal/noise ratio (MST S/N) [2]: 12.6 | Pathogen Box screen signal/noise ratio [2]: 12.6

COc1ccc(OC(C)C(=O)Nc2ccc(Cl)cc2C)cc1 (stereo not drawn) [MMV202458, N-(4-chloro-2-methylphenyl)-2-(4-methoxyphenoxy)propanamide]
Hit validation Binding score [1]: 6.3 | Validation binding score (MST) [1]: 6.3 and > 5 | Screen signal/noise ratio (MST S/N) [2]: 5.5 | Pathogen Box screen signal/noise ratio [2]: 5.5

C[C@H]1c2cccc(O)c2C(=O)C2=C(O)[C@]3(O)C(=O)C(C(N)=O)=C(O)[C@@H](N(C)C)[C@@H]3[C@@H](O)[C@@H]21 [MMV000011, Doxycycline, reference compound]
Hit validation Binding score [1]: 6.5 | Validation binding score (MST) [1]: 6.5 | Validation binding score (MST) ([1]; listed as doxycycline): > 5 | Screen signal/noise ratio (MST S/N) [2]: 5.8 | Pathogen Box screen signal/noise ratio [2]: 5.8

COc1ccccc1OCCCCn1c(C2CC2)nc2ccccc21 [MMV676474, 2-cyclopropyl-1-[4-(2-methoxyphenoxy)butyl]benzimidazole]
Hit validation Binding score [1]: 6.2 | Validation binding score (MST) [1]: 6.2 and > 5 | Screen signal/noise ratio (MST S/N) [2]: 6.0 | Pathogen Box screen signal/noise ratio [2]: 6.0

COc1ccc(N(CCc2cccc(C)n2)C(=O)C2CCCCC2)cc1 [MMV675996, N-(4-methoxyphenyl)-N-[2-(6-methylpyridin-2-yl)ethyl]cyclohexanecarboxamide]
Hit validation Binding score [1]: 4.9 | Validation binding score (MST) [1]: 4.9 | Screen signal/noise ratio (MST S/N) [2]: 6.0 | Pathogen Box screen signal/noise ratio [2]: 6.0

CNC(=O)C1Cc2c([nH]c3cc(Cl)ccc23)C2(CCN(CCc3ccccc3)CC2)N1 (stereo not drawn) [MMV031011, 7-chloro-N-methyl-1'-(2-phenylethyl)spiro[2,3,4,9-tetrahydropyrido[3,4-b]indole-1,4'-piperidine]-3-carboxamide]
Hit validation Binding score [1]: 3.7 | Validation binding score (MST) [1]: 3.7 | Screen signal/noise ratio (MST S/N) [2]: 5.7 | Pathogen Box screen signal/noise ratio [2]: 5.7

O=C(Nc1cccc(Cl)c1)c1cnc(N2CCN(c3ccncc3)CC2)c(Cl)c1 [MMV024406, 5-chloro-N-(3-chlorophenyl)-6-(4-pyridin-4-ylpiperazin-1-yl)pyridine-3-carboxamide]
Hit validation Binding score [1]: 2.3 | Validation binding score (MST) [1]: 2.3 | Screen signal/noise ratio (MST S/N) [2]: 5.2 | Pathogen Box screen signal/noise ratio [2]: 5.2

CNC(=O)c1nn(C)c2c1C(C)(C)Cc1cnc(Nc3ccc(N4CCN(C)CC4)cc3)nc1-2 [MMV676602, Milciclib, reference compound]
Hit validation Binding score [1]: 13.6 | Validation binding score (MST) [1]: > 12 | Solubility in aqueous buffer [3]: poor solubility | Screen signal/noise ratio (MST S/N) [2]: 9.5 | Pathogen Box screen signal/noise ratio [2]: 9.5 | Binding to LpqY (qualitative) ([4]; MST): Concentration dependent binding

CC(=O)Oc1ccccc1C(=O)Nc1ncc([N+](=O)[O-])s1 [MMV688991, Nitazoxanide, reference compound]
Hit validation Binding score [1]: 20.0 | Screen signal/noise ratio (MST S/N) [2]: 8.3 | Pathogen Box screen signal/noise ratio [2]: 8.3 | Kd [4]: 85.4 µM | fold decrease in affinity compared to trehalose ([4]; MST): ~2 fold

COc1cc(NC(C)CCCN)c2ncccc2c1 (stereo not drawn) [MMV000023, Primaquine, reference compound]
Hit validation Binding score [1]: 21.6 | Validation binding score (MST) [1]: 21.6 | Screen signal/noise ratio (MST S/N) [2]: 10.0 | Pathogen Box screen signal/noise ratio [2]: 10.0 | Binding to LpqY (qualitative) ([4]; MST): Concentration dependent binding

Cc1ccc(NC(=O)c2nc[nH]c2C(=O)Nc2nc3ccccc3[nH]2)c(C)c1 [MMV011903]
Pathogen Box screen signal/noise ratio [2]: 1.4

O=C(c1ccc(NCCO)cc1)C1C[C@H]1c1ccc(Cl)cc1 (stereo partly drawn) [MMV676877]
Pathogen Box screen signal/noise ratio [2]: 0.0

CC1=NN(c2nc3ccccc3s2)C(=O)C1Cc1cccc2ccccc12 (stereo not drawn) [MMV676558]
Pathogen Box screen signal/noise ratio [2]: 3.8

CCOc1ccccc1C(=O)Nc1cccc(-c2nc3ncccn3c2C)c1 [MMV019790]
Pathogen Box screen signal/noise ratio [2]: 1.6

Nc1ncc(Br)cc1-c1nc2cc(Cl)cnc2[nH]1 [MMV676358]
Pathogen Box screen signal/noise ratio [2]: 4.8

COC(=O)c1ccc(F)cc1NS(=O)(=O)c1cccc(-c2cnn(Cc3ccccc3)c2)c1 [MMV688350]
Pathogen Box screen signal/noise ratio [2]: 1.5

Clc1ccc(-n2cc(COc3ccnc4ccccc34)nn2)cc1 [MMV675994]
Pathogen Box screen signal/noise ratio [2]: 3.3

O=C(NC1CCN(c2ccnc3ccccc23)C1)c1cccc(C(F)(F)F)c1 (stereo not drawn) [MMV023388]
Pathogen Box screen signal/noise ratio [2]: -0.0357
